As a reminder, the solubility is the dissolved amount per volume that the medium holds. A lower solubility goes with little dissolved substance. The term half-life denotes the time needed for the level to fall by half in the phase considered.

≈ marks a conversion by molar mass, not a printed value. Like-named read-outs stand apart in the source and are kept apart here. Bounds are passed on as bounds.

The source of these data is patent US20170050966A1, “INHIBITING THE TRANSIENT RECEPTOR POTENTIAL A1 ION CHANNEL” (HYDRA BIOSCIENCES, INC., priority 2014, published 2017).

Data set [1] in a line: Solubility in Normal Ringer Solution. In kind it is physicochemical. The following applies: aqueous buffer, kinetic from dmso stock, pH 7.4, room temperature. How it is done: Compounds of the invention were also tested for solubility in Normal Ringer Solution. […] Following vortex and incubation for 40 minutes at room temperature, solutions were filtered, quenched with acetonitrile, and analyzed by liquid chromatography. Solubility limits were determined by comparison to a standard curve. […] Solubility is reported as “greater than” if the observed increase between the last 2 dilutions tested is greater than 2-fold.

In a further data set the target is T1, human TRPA1 (hTRPA1) (Homo sapiens, UniProt O75762).
T1 construct: expressed in transfected cells
T1 sequence (O75762 whole entry): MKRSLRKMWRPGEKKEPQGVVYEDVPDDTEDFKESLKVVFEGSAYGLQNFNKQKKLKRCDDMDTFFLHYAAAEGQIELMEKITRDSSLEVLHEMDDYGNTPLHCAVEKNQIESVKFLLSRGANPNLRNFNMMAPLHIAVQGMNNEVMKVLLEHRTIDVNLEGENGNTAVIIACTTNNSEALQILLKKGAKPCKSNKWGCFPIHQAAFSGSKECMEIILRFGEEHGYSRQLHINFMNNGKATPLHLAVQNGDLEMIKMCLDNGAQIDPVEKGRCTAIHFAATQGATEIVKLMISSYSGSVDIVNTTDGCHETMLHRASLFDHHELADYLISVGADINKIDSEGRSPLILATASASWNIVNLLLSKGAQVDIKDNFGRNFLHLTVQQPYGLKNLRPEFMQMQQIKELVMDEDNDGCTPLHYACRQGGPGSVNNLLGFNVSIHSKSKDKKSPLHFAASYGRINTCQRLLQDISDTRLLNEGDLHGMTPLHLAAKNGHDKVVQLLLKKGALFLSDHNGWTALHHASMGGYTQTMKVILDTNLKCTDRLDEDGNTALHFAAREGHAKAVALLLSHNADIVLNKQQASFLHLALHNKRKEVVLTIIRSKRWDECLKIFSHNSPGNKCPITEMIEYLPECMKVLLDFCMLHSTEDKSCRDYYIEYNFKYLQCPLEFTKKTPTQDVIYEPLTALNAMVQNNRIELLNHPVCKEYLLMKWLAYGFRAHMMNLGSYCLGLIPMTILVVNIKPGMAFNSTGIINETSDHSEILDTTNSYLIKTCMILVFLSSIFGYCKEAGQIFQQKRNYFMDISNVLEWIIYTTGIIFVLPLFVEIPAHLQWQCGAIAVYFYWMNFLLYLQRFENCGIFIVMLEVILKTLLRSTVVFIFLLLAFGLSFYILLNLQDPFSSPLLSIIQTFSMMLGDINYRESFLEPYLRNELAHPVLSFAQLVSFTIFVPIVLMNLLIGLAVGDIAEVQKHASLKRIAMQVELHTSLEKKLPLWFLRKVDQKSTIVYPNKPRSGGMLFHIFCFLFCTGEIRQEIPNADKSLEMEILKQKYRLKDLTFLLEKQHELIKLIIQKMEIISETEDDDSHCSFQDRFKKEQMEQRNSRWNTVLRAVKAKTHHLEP
Put plainly: Inhibition of human TRPA1, whole-cell patch clamp. In kind it is cell-based. Particulars: antagonist effect, whole cell patch configuration; read-out: hTRPA1. Here is the method:
Data for TRPA1 inhibition was obtained by this method for the indicated compounds of Formula (I), with the relevant data included in Table 14 below. All currents were recorded in whole-cell configuration using EPC-9 and EPC-10 amplifiers and Patchmaster software (HEKA). […] The standard pipette solution consisted of 140 mM CsAsp, 10 mM EGTA, 10 mM HEPES, […], 1.91 mM CaCl2, and up to 0.3 mM Na2GTP, with pH adjusted to 7.2 with CsOH. In addition, a solution containing 145 mM CsCl, 10 mM HEPES, 10 mM EGTA, and up to 0.3 mM Na2GTP and 1 mM MgCl2 (pH 7.2 adjusted with CsOH) can be used. The standard bath solution contained 150 mM NaCl, 10 mM HEPES, 10 mM glucose, 4.5 mM KCl, 1 mM EGTA, 3 mM MgCl2, with pH adjusted to 7.4 with NaOH. In some instances, 2 mM CaCl2 was added in place of EGTA and the concentration of MgCl2 was reduced to 1 mM.
Data were collected either by continuous recordings at −60 mV or by applying voltage ramps from a holding potential of 0 mV every 4 s. Continuous recordings were collected at 400 Hz and digitally filtered off-line at 10 Hz for presentation. Voltage ramps were applied from −100 mV to 100 mV over the course of 400 ms, and data were collected at 10 kHz and filtered at […]. Inward and outward currents were analyzed from the ramps at −80 and 80 mV, respectively. Liquid junction potential correction was not used.
Solutions were switched using a gravity-fed continuous focal perfusion system. To achieve rapid temperature changes, two temperature control, and perfusion systems were employed simultaneously. For temperatures greater than or equal to 22° C., a Warner Instruments bipolar temperature controller (TC-344B) and inline heater (SHM-8) were used. […] Temperatures were confirmed using a thermistor (Warner Instruments, TA-29), with temperatures at the recorded cell estimated to be within +/−2° C. of those reported.
The antagonist effects of compounds of Formula (I) against human TRPA1 (“hTRPA1”) in a whole cell patch configuration were evaluated using the in vitro assay protocol described above.
(In general: The patch-clamp technique gives a direct electrical read-out from membranes.)

Data set [2] is described as follows: Metabolic stability in liver microsomes. The class given is in vitro ADME, human. Particulars: 1 μM test compound; for half-life at 1 μM: human, liver microsomes, 37° C. How it is done:
(§1) Metabolic stability of the compounds of Formula (I) was determined by standard liver microsome assays. Briefly, metabolic stability was tested by adding the compound to be tested dissolved in DMSO to human, dog, or rat liver microsomes. Assays were run with a starting concentration of 1 μM test compound. The reaction was initiated by addition of nicotinamide adenine dinucleotide phosphate[…] (NADPH) regeneration components at 37° C., at which time an aliquot was immediately quenched in an ice-cold acetonitrile/methanol/water solution. Reaction mixture was incubated at 37° C. on a shaker, and additional aliquots were taken at 7, 15, 30 and 60 minutes. Following quench and centrifugation, samples were analyzed on HPLC/MS/MS.
A general note: Liver microsomes are vesicles of endoplasmic reticulum, rich in cytochrome P450 enzymes.

A short description of data set [3]: Metabolic stability in liver microsomes. In kind it is in vitro ADME. How it is done:
as §1

Data set [4] can be described thus: Oral bioavailability of solutions in non-fasted rats. Particulars: rat, in vivo, oral solution, read-out: Rat % F. Here is the method: Early bioavailability studies in rat were conducted with solutions of the compounds of the invention. Compounds were delivered via oral administration as a solution in an appropriate excipient. Example formulations include, but are not limited to: 4% DMSO, 10% Solutol HS-15, and 86% water or 4% DMSO, 5% Tween, 25% Cremophor EL. Target concentrations were typically 1 mg/mL, and administered via oral gavage to non-fasted rats. The absolute bioavailability is the dose-corrected area under the curve (AUC) non-intravenous divided by the dose corrected AUC intravenous. The formula for calculating F for a drug administered by the oral route (PO) is given below:
% F=AUC PO×Dose IV/AUC IV×Dose PO

Data set [5] is described as follows: Kinetic solubility in buffered solutions. Particulars: aqueous buffer, kinetic from dmso stock, 24 hours ambient. The class given is physicochemical. Here is the method:
The solubilities of the compounds of Formula (I) were tested using the procedure outlined in Kerns, E. H., J Pharm Sci (2001) 90:1838-1858, incorporated herein by reference and described below. Data for solubility was obtained by this method for compounds of Formula (I) and included in Table 3. The chromatographic data was performed by HPLC using an Xbridge Shield RP18 column with the following column dimensions: 4.6×30 mm, 3.5 μm. The mobile phase consisted of deionized water (MPA) with trifluoroacetic acid added in at 0.1% (v/v) (MPC) and HPLC-grade acetonitrile (MPB). The mobile phase flow rate was 2.5 mL/min with the column and sampling operating at ambient temperature. UV detection was set to 280 nm.
Samples for analysis of the compounds of Formula (I) were prepared at a % v/v=1/19 (i.e., 10 μL of the stock solution into 190 μL of buffer) by spiking stock solutions of the compounds of Formula (I) into buffered solutions. Three buffered solution systems were prepared: pH 4.0 prepared from 50 mM sodium acetate in a 5% dextrose in water solution, pH 7.4 prepared from 75 mM sodium phosphate in a 1:1 ratio of sterilized water for injection to a 5% dextrose in water solution, and pH 9.0 prepared from 50 mM sodium bicarbonate in a 1:2 ratio of sterilized water for injection to a 5% dextrose in water solution. The samples were incubated on a microplate shaker at 300 rpm for 24 hours at ambient temperature. Following incubation, the samples were centrifuged for five minutes at 13 k rpm at ambient temperature. The resulting supernantant was extracted for HPLC analysis.

Where [6] appears, read: dog liver microsomes, both sexes, read-out: Half-Life both sexes.
The mark [7] stands for this setting: rat liver microsomes, both sexes, read-out: Half-Life Both sexes.
The mark [8] stands for this setting: sodium acetate buffer, pH 4.0, 50 mM sodium acetate, read-out: pH 4.0 solubility.
Setting [9] is: sodium bicarbonate buffer, pH 9.0, 50 mM sodium bicarbonate, read-out: pH 9.0 solubility.
Setting [10] is: sodium phosphate buffer, pH 7.4, 75 mM sodium phosphate, read-out: pH 7.4 solubility.
The mark [11] stands for this setting: rat liver microsomes, male, read-out: Male Half-Life.

`C[C@@H](C(=O)Nc1ccnc(-c2cnc(N3CCC[C@H]3C(F)(F)F)nc2)n1)n1cnc2[nH]c(=O)n(C)c(=O)c21` [Compound 5, (S)-2-(1-methyl-2,6-dioxo-2,3-dihydro-1H-purin-7(6H)-yl)-N-(2′-((S)-2-(trifluoromethyl)pyrrolidin-1-yl)-[2,5′-bipyrimidin]-4-yl)propanamide] showed a solubility at 40 min in data set [1] of 4.37 µM (≈ 2.32 µg/mL). Further, at human TRPA1 (hTRPA1), the IC50 came out at 663 nM. Also, the half-life at 1 μM in data set [2] is 37.8 min; in data set [3] (setting [6]), above 120 min; in data set [3] (setting [7]), 113 min.
The molecule `C[C@@H](C(=O)Nc1ccnc(-c2cnc(N3CCC[C@H]3C(F)(F)F)nc2)n1)n1cnc2c1c(=O)n(C)c(=O)n2C(F)F` [Compound 6, (S)-2-(3-(difluoromethyl)-1-methyl-2,6-dioxo-2,3-dihydro-1H-purin-7(6H)-yl)-N-(2′-((S)-2-(trifluoromethyl)pyrrolidin-1-yl)-[2,5′-bipyrimidin]-4-yl)propanamide] displayed a solubility at 40 min in data set [1] of around 23 µM (≈ 13.4 µg/mL). Besides, the IC50 on human TRPA1 (hTRPA1) worked out at 29.7 nM. The half-life at 1 μM in data set [2] was 27.4 min; in data set [3] (setting [7]), 118 min.
On the same counts, the results for `C[C@@H](C(=O)Nc1ccnc(-c2cnc(N3CC(C(F)(F)F)C3)nc2)n1)n1cnc2c1c(=O)n(C)c(=O)n2C` [Compound 13, (S)-2-(1,3-dimethyl-2,6-dioxo-2,3-dihydro-1H-purin-7(6H)-yl)-N-(2′-(3-(trifluoromethyl)azetidin-1-yl)-2,5′-bipyrimidin-4-yl)propanamide] are above 77.6 µM, 62.9 nM, above 60 min and 60 min.
With `C[C@@H](C(=O)Nc1ccnc(-c2cnc(N3CC4CC4C3)nc2)n1)n1cnc2c1c(=O)n(C)c(=O)n2C` (stereo partly drawn) [Compound 15, (2S)—N-(2′-(3-azabicyclo[3.1.0]hexan-3-yl)-2,5′-bipyrimidin-4-yl)-2-(1,3-dimethyl-2,6-dioxo-2,3-dihydro-1H-purin-7(6H)-yl)propanamide], the solubility at 40 min in data set [1] is 16.3 µM (≈ 7.96 µg/mL). On human TRPA1 (hTRPA1), the IC50 was determined as 26.7 nM. The figures for the half-life at 1 μM in data set [2] and in data set [3] (setting [7]) were 88.8 min and 72.7 min, respectively. Moreover, the bioavailability in data set [4] was 35%.
In data set [1], `C[C@@H](C(=O)Nc1ccnc(-c2cnc(N3CCC(C(F)(F)F)C3)nc2)n1)n1cnc2c1c(=O)n(C)c(=O)n2C` (stereo partly drawn) [Compound 16, (2S)-2-(1,3-dimethyl-2,6-dioxo-2,3-dihydro-1H-purin-7(6H)-yl)-N-(2′-(3-(trifluoromethyl)pyrrolidin-1-yl)-2,5′-bipyrimidin-4-yl)propanamide] displayed a solubility at 40 min above 47 µM. On human TRPA1 (hTRPA1), the IC50 is 24.9 nM. For the same molecule, the half-life at 1 μM in data set [2] was 52.4 min.
As to `Cn1c(=O)c2c(ncn2CC(=O)Nc2ccnc(-c3cnc(N4CCCC4(C)C)nc3)n2)n(C)c1=O` [Compound 18, 2-(1,3-dimethyl-2,6-dioxo-2,3-dihydro-1H-purin-7(6H)-yl)-N-(2′-(2,2-dimethylpyrrolidin-1-yl)-2,5′-bipyrimidin-4-yl)acetamide], the solubility kinetic at 24 h was found to be 51 µg/mL (≈ 104 µM) in data set [5] (setting [8]), 17 µg/mL (≈ 34.7 µM) in data set [5] (setting [9]) and 41 µg/mL (≈ 83.6 µM) in data set [5] (setting [10]). Also, the IC50 at human TRPA1 (hTRPA1) worked out at 10.4 nM. In data set [2], the “Human Liver Microsomes Hepatic Clearance” value was 15 mL/min/kg. Moreover, the figures for the half-life at 1 μM in data set [2] and in data set [3] (setting [7]) were 12 min and 21.8 min, respectively. In addition, the “Hepatic Clearance” value in data set [3] (rat liver microsomes) was determined as 24 mL/min/kg.
Consider `C[C@H]1CCCN1c1ncc(-c2nccc(NC(=O)Cn3cnc4c3c(=O)n(C)c(=O)n4C)n2)cn1` [Compound 19, (S)-2-(1,3-dimethyl-2,6-dioxo-2,3-dihydro-1H-purin-7(6H)-yl)-N-(2′-(2-methylpyrrolidin-1-yl)-2,5′-bipyrimidin-4-yl)acetamide], for which the solubility kinetic at 24 h in data set [5] (setting [8]) was found to be 6 µg/mL (≈ 12.6 µM); in data set [5] (setting [9]), 3.5 µg/mL (≈ 7.35 µM); in data set [5] (setting [10]) it was 10 µg/mL (≈ 21 µM). Moreover, the solubility at 40 min in data set [1] was above 18.2 µM. Moreover, at human TRPA1 (hTRPA1), the IC50 was 96.1 nM. Also, the “Human Liver Microsomes Hepatic Clearance” value in data set [2] is 9 mL/min/kg. The half-life at 1 μM is 50 min in data set [2], 44 min in data set [3] (setting [6]), 63.8 min in data set [3] (setting [7]) and 36 min in data set [3] (setting [11]). Also, in data set [3] (dog liver microsomes), the “Hepatic Clearance” value is recorded as 11 mL/min/kg. Moreover, the “Male Hepatic Clearance” value in data set [3] (rat liver microsomes, male) came to 25 mL/min/kg. Besides, the bioavailability in data set [4] was found to be 77%.
As to `C[C@H]1CCCN1c1ncc(-c2nccc(NC(=O)[C@H](C)n3cnc4c3c(=O)n(C)c(=O)n4C)n2)cn1` [Compound 21, (S)-2-(1,3-dimethyl-2,6-dioxo-2,3-dihydro-1H-purin-7(6H)-yl)-N-(2′-((S)-2-methylpyrrolidin-1-yl)-[2,5′-bipyrimidin]-4-yl)propanamide], the solubility kinetic at 24 h in data set [5] (setting [8]) turned out to be 34 µg/mL (≈ 69.3 µM); in data set [5] (setting [9]), 10.5 µg/mL (≈ 21.4 µM); in data set [5] (setting [10]) it was 20 µg/mL (≈ 40.8 µM). At human TRPA1 (hTRPA1), the IC50 worked out at 51 nM. Besides, the “Human Liver Microsomes Hepatic Clearance” value in data set [2] worked out at 10.5 mL/min/kg. In addition, the half-life at 1 μM was found to be 30 min in data set [2]; 66 min in data set [3] (dog liver microsomes, female, read-out: Female Half-Life); 16 min in data set [3] (setting [11]). Moreover, the “Female Hepatic Clearance” value in data set [3] (dog liver microsomes, female) is listed as 8 mL/min/kg. Moreover, the “Hepatic Clearance” value in data set [3] (rat liver microsomes) came out at 11 mL/min/kg. The “Male Hepatic Clearance” value in data set [3] (rat liver microsomes, male) worked out at 34 mL/min/kg.
Molecule `C[C@@H](C(=O)Nc1ccnc(-c2cnc(N3CC4C(C3)C4(F)F)nc2)n1)n1cnc2c1c(=O)n(C)c(=O)n2C` (stereo partly drawn) [Compound 26] had a solubility at 40 min in data set [1] above 15.1 µM.
